Columns and labels:
[1] = test system: human placental IGF-I receptor; experiment: Human placental IGF-I receptor binding assay (competition with 125I IGF-I); conditions: human placental membranes
Description: (§1) Metab., Vol.67, pgs. 194-197, the entire teaching of which is hereby incorporated by reference, except that the incubation was performed at 4° C. for 18 hours and membranes were collected on a Skatron Cell Harvester (commercially available from Skatron, Inc., Sterling, Va.). The glucose transport assay in rat adipocytes was performed in substantial accordance with the teachings of Kashwagi, M., et al., (1983) J. Clin, Invest., Vol.72, pgs. 1246-1254, the entire teaching of which is hereby incorporated by reference.

[2] = test system: fasted, male, lean Sprague-Dawley rats; experiment: In vivo hypoglycemic effect in fasted rats; design: species or system rat; conditions: for Max. hypoglycemic effect (percent) 1 hour: 1 hour after subcutaneous administration; for Max. hypoglycemic effect (percent) 1 hour / Max. hypoglycemic effect (percent) 2 hours: percent change from zero time corrected for control group; for Max. hypoglycemic effect (percent) 1 hour / Max. hypoglycemic effect (percent) 2 hours / ED50 1 hour / ED50 2 hours: mean ± S.E.M.; for Max. hypoglycemic effect (percent) 2 hours: 2 hours after subcutaneous administration; for ED50 1 hour: half the maximal hypoglycemic activity 1 hour after subcutaneous administration; for ED50 2 hours: half the maximal hypoglycemic activity 2 hours after subcutaneous administration
Description: The data presented in Table III were obtained in tests carried out in fasted, male, lean Sprague-Dawley rats (Charles River Laboratories).
In vivo activity of ACB-proinsulins was determined in fasted rats. Male, lean Sprague-Dawley rats (obtained from Charles River Laboratories, Wilmington, Mass. 01887) 190-210 g bodyweight, were fasted for 16 hours. Ten animals were chosen at random and divided into two groups of five rats each. The control group received a subcutaneous saline injection (0.1 ml per 100 g bodyweight) while the experimental groups received a saline injection containing the test peptide. Blood (0.1 ml) was obtained from the tail of each rat for glucose determination (Sigma Diagnostics, glucose [Trinder], address) before administration of the peptide and again at 30 minutes, 1, 2, 3 and 4 hours after administration of the peptide.
The mean percent change from zero time plus or minus S.E.M. in blood glucose for control and treated groups of rats were calculated and the final results expressed by adjusting the change in the experimental group for the change in the control group. The effect of 5 to 7 different doses of each peptide was routinely determined.

rat adipocytes = experiment: Glucose transport assay in rat adipocytes; type: cell-based; conditions: glucose uptake by adipocytes
Description: as §1

[3] = test system: human placental insulin receptor; experiment: Human placental insulin receptor binding assay (competition with 125I insulin); conditions: placental membrane insulin receptors
Description: as §1

Substance | ED50 IGF-I Receptor [1] | Max. hypoglycemic effect (percent) 1 hour [2] | Max. hypoglycemic effect (percent) 2 hours [2] | ED50 1 hour [2] | ED50 2 hours [2] | time at which blood glucose levels returned to baseline ([2]; s.c. administration) | time of maximal hypoglycemic response after subcutaneous administration ([2]; s.c. administration) | ED50 Glucose Transport (rat adipocytes) | Relative biological action to insulin 1 hour ([2]; 1 hour, subcutaneous, insulin = 100.0) | Relative biological action to insulin 2 hours ([2]; 2 hours, subcutaneous, insulin = 100.0) | ED50 Insulin Receptor [3]
IGF-I: human IGF-I, reference ligand of the IGF-I receptor | 0.45 nM |  |  |  |  |  |  |  |  |  | 
Insulin: human insulin, two-chain protein hormone, reference |  | 59.0 ± 4.3% | 45.7 ± 6.7% | 1.0 ± 0.01 nM | 1.6 ± 0.09 nM | 3 to 4 h | 1 h | 0.043 nM |  |  | 
Proinsulin: naturally occurring human (BCA) proinsulin, reference | 10000 nM | 55.1 ± 2.6% | 61.0 ± 4.0% | 91. ± 1.7 nM | 8.2 ± 0.8 nM |  | 2 h |  | 14.3 ± 2.8 | 19.5 ± 1.8 | 20.4 nM
